Assay results reported in ChEMBL document CHEMBL4507285, “Data for DCP probe MRL-SYKi” (2021).

Experiments:
[1] = molecular target: Serine/threonine-protein kinase VRK2 (Homo sapiens) (UniProt Q86Y07); conditions: Compound concentration 100.0 nM
[2] = molecular target: Serine/threonine-protein kinase 32B (Homo sapiens) (UniProt Q9NY57); conditions: Compound concentration 100.0 nM
[3] = molecular target: D(4) dopamine receptor (Homo sapiens) (UniProt P21917); conditions: Compound concentration 10.0 uM
[4] = molecular target: Ribosomal protein S6 kinase alpha-4 (Homo sapiens) (UniProt O75676); conditions: Compound concentration 100.0 nM
[5] = tested on: Receptor-type tyrosine-protein kinase FLT3 (Homo sapiens), P36888 [UNDEFINED MUTATION]; conditions: Compound concentration 100.0 nM
[6] = molecular target: 5-hydroxytryptamine receptor 1D (Homo sapiens) (UniProt P28221); conditions: Compound concentration 10.0 uM
[7] = molecular target: Serine/threonine-protein kinase Sgk3 (Homo sapiens) (UniProt Q96BR1); conditions: Compound concentration 100.0 nM
[8] = tested on: Receptor-type tyrosine-protein kinase FLT3 (Homo sapiens), P36888 [K663Q]; conditions: Compound concentration 100.0 nM
[9] = molecular target: Muscle, skeletal receptor tyrosine-protein kinase (Homo sapiens) (UniProt O15146); conditions: Compound concentration 100.0 nM
[10] = molecular target: Macrophage colony-stimulating factor 1 receptor (Homo sapiens) (UniProt P07333); conditions: Compound concentration 100.0 nM
[11] = tested on: eIF-2-alpha kinase GCN2 (Homo sapiens), Q9P2K8 [S808G]; conditions: Compound concentration 100.0 nM
[12] = molecular target: Casein kinase I isoform alpha (Homo sapiens) (UniProt P48729); conditions: Compound concentration 100.0 nM
[13] = molecular target: Calcium/calmodulin-dependent protein kinase kinase 1 (Homo sapiens) (UniProt Q8N5S9); conditions: Compound concentration 100.0 nM
[14] = molecular target: Serine/threonine-protein kinase 36 (Homo sapiens) (UniProt Q9NRP7); conditions: Compound concentration 100.0 nM
[15] = molecular target: Serine/threonine-protein kinase 26 (Homo sapiens) (UniProt Q9P289); conditions: Compound concentration 100.0 nM
[16] = molecular target: Ephrin type-A receptor 2 (Homo sapiens) (UniProt P29317); conditions: Compound concentration 100.0 nM
[17] = molecular target: Serine/threonine-protein kinase 17B (Homo sapiens) (UniProt O94768); conditions: Compound concentration 100.0 nM
[18] = molecular target: Ephrin type-A receptor 4 (Homo sapiens) (UniProt P54764); conditions: Compound concentration 100.0 nM
[19] = molecular target: Tyrosine-protein kinase Fyn (Homo sapiens, UniProt P06241); conditions: Compound concentration 100.0 nM
[20] = molecular target: Citron Rho-interacting kinase (Homo sapiens) (UniProt O14578); conditions: Compound concentration 100.0 nM
[21] = molecular target: Ephrin type-A receptor 6 (Homo sapiens) (UniProt Q9UF33); conditions: Compound concentration 100.0 nM
[22] = molecular target: Aurora kinase C (Homo sapiens) (UniProt Q9UQB9); conditions: Compound concentration 100.0 nM
[23] = molecular target: Phosphatidylinositol 4-kinase beta (Homo sapiens) (UniProt Q9UBF8); conditions: Compound concentration 100.0 nM
[24] = molecular target: Interleukin-1 receptor-associated kinase 4 (Homo sapiens) (UniProt Q9NWZ3); conditions: Compound concentration 100.0 nM
[25] = molecular target: Uncharacterized serine/threonine-protein kinase SBK3 (Homo sapiens) (UniProt P0C264); conditions: Compound concentration 100.0 nM
[26] = molecular target: SRSF protein kinase 2 (Homo sapiens) (UniProt P78362); conditions: Compound concentration 100.0 nM
[27] = tested on: Mast/stem cell growth factor receptor Kit (Homo sapiens), P10721 [V559D]; conditions: Compound concentration 100.0 nM
[28] = molecular target: Dual specificity testis-specific protein kinase 1 (Homo sapiens) (UniProt Q15569); conditions: Compound concentration 100.0 nM
[29] = molecular target: Muscarinic acetylcholine receptor M2 (Homo sapiens) (UniProt P08172); conditions: Compound concentration 10.0 uM
[30] = molecular target: GABA-A receptor; anion channel (Rattus norvegicus) (UniProt O09028+P15431+P18506+P18508+P19969+P20236+P23574+P23576+P28471+P28473+P30191+P62813+P63079+P63138+Q91ZM7+Q9ES14); conditions: Compound concentration 10.0 uM
[31] = molecular target: Mitogen-activated protein kinase kinase kinase kinase 1 (Homo sapiens) (UniProt Q92918); conditions: Compound concentration 100.0 nM
[32] = molecular target: Receptor-type tyrosine-protein kinase FLT3 (Homo sapiens) (UniProt P36888); conditions: Compound concentration 100.0 nM
[33] = molecular target: Atypical kinase COQ8A, mitochondrial (Homo sapiens) (UniProt Q8NI60); conditions: Compound concentration 100.0 nM
[34] = molecular target: Casein kinase I isoform gamma-2 (Homo sapiens) (UniProt P78368); conditions: Compound concentration 100.0 nM
[35] = tested on: ALK tyrosine kinase receptor (Homo sapiens), Q9UM73 [L1196M]; conditions: Compound concentration 100.0 nM
[36] = molecular target: Bone morphogenetic protein receptor type-2 (Homo sapiens) (UniProt Q13873); conditions: Compound concentration 100.0 nM
[37] = molecular target: Serine/threonine-protein kinase ULK3 (Homo sapiens) (UniProt Q6PHR2); conditions: Compound concentration 100.0 nM
[38] = molecular target: Serine/threonine-protein kinase WNK2 (Homo sapiens) (UniProt Q9Y3S1); conditions: Compound concentration 100.0 nM
[39] = molecular target: High affinity nerve growth factor receptor (Homo sapiens, UniProt P04629); conditions: Compound concentration 100.0 nM
[40] = molecular target: Cyclin-dependent kinase-like 5 (Homo sapiens) (UniProt O76039); conditions: Compound concentration 100.0 nM
[41] = tested on: Phosphatidylinositol 4,5-bisphosphate 3-kinase catalytic subunit alpha isoform (Homo sapiens), P42336 [E545K]; conditions: Compound concentration 100.0 nM
[42] = molecular target: Eukaryotic translation initiation factor 2-alpha kinase 1 (Homo sapiens) (UniProt Q9BQI3); conditions: Compound concentration 100.0 nM
[43] = molecular target: Dual specificity mitogen-activated protein kinase kinase 5 (Homo sapiens) (UniProt Q13163); conditions: Compound concentration 100.0 nM
[44] = molecular target: Histamine H4 receptor (Homo sapiens) (UniProt Q9H3N8); conditions: Compound concentration 10.0 uM

Chain of Serine/threonine-protein kinase 17B (Homo sapiens) (O94768 whole entry): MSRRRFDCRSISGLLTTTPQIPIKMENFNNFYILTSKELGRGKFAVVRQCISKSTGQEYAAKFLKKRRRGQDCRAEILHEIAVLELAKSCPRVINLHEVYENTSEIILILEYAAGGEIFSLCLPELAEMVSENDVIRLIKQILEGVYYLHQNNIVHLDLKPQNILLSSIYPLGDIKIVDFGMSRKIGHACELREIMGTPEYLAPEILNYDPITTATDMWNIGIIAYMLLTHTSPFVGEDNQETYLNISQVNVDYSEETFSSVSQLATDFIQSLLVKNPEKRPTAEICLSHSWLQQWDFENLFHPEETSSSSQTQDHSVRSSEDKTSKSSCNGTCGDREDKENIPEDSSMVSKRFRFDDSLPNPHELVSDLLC
Chain of Atypical kinase COQ8A, mitochondrial (Homo sapiens) (Q8NI60 163-647 limits assumed): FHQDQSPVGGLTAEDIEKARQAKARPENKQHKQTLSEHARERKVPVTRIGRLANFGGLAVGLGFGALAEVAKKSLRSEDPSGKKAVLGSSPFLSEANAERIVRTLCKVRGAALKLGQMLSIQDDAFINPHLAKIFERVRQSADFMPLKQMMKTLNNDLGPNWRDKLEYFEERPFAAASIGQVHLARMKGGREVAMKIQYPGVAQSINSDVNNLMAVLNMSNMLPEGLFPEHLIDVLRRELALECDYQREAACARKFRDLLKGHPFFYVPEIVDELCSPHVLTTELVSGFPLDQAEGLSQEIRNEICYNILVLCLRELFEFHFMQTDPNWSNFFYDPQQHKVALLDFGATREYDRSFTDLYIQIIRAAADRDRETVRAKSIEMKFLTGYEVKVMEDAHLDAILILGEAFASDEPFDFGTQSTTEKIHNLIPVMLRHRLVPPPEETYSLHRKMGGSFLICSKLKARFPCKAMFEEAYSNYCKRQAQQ
Chain of Serine/threonine-protein kinase WNK2 (Homo sapiens) (Q9Y3S1 whole entry): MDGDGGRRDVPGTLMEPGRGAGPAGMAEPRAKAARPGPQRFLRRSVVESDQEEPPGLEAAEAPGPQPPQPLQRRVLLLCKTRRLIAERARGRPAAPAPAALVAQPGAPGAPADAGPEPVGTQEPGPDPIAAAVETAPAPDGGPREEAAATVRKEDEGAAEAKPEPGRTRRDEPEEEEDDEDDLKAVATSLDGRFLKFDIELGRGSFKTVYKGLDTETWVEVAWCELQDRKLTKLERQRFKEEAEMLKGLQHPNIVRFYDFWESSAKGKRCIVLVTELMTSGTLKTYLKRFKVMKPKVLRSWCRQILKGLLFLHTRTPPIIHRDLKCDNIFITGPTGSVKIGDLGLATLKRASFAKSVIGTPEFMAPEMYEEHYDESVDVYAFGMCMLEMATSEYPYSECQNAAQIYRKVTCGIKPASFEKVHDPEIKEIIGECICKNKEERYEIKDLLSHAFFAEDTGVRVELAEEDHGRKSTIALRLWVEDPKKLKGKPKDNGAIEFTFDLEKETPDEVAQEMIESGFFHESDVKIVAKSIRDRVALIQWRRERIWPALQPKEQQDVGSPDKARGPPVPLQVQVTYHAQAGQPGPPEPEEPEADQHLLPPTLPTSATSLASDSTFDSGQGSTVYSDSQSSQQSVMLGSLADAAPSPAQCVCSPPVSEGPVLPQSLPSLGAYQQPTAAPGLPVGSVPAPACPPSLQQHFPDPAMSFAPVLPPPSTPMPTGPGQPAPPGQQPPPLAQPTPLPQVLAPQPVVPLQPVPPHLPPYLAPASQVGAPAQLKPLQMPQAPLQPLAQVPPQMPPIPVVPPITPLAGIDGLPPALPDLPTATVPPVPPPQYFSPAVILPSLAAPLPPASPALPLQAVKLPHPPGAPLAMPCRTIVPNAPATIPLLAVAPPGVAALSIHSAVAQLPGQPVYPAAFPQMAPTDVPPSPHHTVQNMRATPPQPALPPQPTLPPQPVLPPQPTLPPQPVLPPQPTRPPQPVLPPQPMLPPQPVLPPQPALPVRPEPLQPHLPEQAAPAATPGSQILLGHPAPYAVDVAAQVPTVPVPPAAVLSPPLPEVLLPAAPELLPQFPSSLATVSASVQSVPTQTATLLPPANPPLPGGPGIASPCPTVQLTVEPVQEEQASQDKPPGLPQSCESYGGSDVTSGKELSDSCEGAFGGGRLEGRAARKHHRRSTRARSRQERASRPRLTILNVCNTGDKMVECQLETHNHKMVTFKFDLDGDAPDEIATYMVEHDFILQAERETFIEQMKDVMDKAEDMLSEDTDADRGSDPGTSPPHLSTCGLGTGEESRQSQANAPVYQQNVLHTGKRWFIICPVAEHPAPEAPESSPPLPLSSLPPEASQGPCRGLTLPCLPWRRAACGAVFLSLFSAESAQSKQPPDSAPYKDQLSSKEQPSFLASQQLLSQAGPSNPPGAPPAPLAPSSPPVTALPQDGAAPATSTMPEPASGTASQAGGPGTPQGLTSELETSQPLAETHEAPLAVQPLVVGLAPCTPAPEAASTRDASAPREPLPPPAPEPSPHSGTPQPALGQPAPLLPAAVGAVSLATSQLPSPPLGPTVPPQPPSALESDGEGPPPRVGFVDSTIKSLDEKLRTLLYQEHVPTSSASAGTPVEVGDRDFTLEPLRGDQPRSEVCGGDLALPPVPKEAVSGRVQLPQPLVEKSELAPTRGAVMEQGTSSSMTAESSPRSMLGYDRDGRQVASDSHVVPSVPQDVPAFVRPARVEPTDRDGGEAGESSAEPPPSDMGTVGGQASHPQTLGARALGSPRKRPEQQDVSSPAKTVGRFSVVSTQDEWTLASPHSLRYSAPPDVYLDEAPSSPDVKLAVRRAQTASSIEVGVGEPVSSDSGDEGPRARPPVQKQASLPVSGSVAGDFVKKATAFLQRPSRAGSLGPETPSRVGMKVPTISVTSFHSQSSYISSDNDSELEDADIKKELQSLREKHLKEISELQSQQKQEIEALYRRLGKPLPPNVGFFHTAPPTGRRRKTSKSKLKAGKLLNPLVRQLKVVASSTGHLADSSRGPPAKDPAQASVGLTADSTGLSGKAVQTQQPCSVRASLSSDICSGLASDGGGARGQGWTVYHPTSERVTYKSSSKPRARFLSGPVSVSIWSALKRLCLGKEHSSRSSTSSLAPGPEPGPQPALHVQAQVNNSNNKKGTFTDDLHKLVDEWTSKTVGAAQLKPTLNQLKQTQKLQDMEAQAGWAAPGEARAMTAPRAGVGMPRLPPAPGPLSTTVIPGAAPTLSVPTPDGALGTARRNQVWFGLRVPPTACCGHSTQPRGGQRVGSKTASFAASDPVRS
Chain of Tyrosine-protein kinase Fyn (P06241 2-537 limits assumed): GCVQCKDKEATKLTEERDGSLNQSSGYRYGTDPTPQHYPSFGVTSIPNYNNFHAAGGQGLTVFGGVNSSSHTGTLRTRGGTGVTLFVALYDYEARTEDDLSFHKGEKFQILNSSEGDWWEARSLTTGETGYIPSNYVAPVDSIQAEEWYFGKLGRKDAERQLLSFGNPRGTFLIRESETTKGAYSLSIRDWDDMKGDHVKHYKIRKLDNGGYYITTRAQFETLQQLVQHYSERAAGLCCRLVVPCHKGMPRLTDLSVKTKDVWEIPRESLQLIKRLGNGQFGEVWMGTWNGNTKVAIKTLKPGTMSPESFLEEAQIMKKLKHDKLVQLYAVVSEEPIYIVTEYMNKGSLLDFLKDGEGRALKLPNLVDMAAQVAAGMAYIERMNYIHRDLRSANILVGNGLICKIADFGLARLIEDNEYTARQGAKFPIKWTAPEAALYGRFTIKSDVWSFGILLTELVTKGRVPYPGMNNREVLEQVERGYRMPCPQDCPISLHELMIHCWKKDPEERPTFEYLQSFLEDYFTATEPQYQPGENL
Chain of Dual specificity testis-specific protein kinase 1 (Homo sapiens) (Q15569 whole entry, looked up): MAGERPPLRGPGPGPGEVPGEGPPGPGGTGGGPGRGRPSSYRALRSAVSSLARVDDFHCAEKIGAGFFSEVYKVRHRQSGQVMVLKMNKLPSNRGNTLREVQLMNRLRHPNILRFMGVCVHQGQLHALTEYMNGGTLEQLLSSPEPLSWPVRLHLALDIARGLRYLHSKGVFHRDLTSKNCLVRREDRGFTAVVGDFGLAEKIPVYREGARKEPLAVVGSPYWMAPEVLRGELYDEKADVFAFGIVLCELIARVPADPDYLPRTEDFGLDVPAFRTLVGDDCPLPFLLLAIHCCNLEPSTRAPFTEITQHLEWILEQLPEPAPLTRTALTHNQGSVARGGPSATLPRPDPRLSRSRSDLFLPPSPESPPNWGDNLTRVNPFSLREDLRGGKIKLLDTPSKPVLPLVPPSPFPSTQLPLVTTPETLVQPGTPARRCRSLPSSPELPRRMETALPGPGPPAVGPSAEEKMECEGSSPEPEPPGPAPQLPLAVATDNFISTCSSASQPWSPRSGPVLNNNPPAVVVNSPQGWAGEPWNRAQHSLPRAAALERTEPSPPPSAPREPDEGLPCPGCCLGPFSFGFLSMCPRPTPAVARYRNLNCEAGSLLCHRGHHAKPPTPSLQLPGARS
Chain of 5-hydroxytryptamine receptor 1D (Homo sapiens) (P28221 whole entry): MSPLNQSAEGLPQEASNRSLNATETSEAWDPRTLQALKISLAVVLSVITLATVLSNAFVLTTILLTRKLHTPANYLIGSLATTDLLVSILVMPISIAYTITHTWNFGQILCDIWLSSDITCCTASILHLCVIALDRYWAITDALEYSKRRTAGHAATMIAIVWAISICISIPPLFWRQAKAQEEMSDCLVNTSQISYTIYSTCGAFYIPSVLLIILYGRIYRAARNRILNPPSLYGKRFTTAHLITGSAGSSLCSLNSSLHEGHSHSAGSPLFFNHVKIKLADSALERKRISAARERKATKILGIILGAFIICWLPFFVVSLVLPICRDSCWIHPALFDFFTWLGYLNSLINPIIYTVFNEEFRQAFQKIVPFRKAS
Chain of Casein kinase I isoform alpha (Homo sapiens) (P48729 2-337 limits assumed): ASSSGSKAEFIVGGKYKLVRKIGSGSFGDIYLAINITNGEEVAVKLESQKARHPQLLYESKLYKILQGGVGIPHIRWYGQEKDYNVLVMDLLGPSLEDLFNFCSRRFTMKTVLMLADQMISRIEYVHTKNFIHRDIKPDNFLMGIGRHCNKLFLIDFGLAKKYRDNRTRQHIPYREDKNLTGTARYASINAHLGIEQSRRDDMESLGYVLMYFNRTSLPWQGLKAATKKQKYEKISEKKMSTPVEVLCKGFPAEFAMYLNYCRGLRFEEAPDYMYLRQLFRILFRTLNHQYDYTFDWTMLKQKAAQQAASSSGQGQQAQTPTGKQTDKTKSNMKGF

For `Cc1ccc(-c2cnc([C@@]3(O)CC[C@H](C(=O)O)C(C)(C)C3)s2)cc1Nc1cccc(C(F)(F)F)n1` [MRL-SYKi-NC], which residual activity [1] is on record?
Its residual activity is 100%.

What about the residual activity [2] of the same molecule?
The residual activity was 63.9%.

What about the inhibition [3] of the same molecule?
Its inhibition is -9.54%.

What about the residual activity [4] of the same molecule?
Its residual activity is 95.1%.

And the residual activity [5]?
Its residual activity is 56.9%.

What about the inhibition [6] of the same molecule?
Its inhibition is 16.5%.

And the residual activity [7]?
The residual activity was 100%.

And the residual activity [8]?
The residual activity was 100%.

What about the residual activity [9] of the same molecule?
The residual activity was 93.6%.

And the residual activity [10]?
Its residual activity is 84%.

And the residual activity [11]?
The residual activity was 100%.

And the residual activity [12]?
The residual activity was 94%.

And the residual activity [13]?
The residual activity was 84.1%.

And the residual activity [14]?
The residual activity was 95.5%.

What about the residual activity [15] of the same molecule?
Its residual activity is 100%.

What about the residual activity [16] of the same molecule?
Its residual activity is 100%.

What about the residual activity [17] of the same molecule?
Its residual activity is 94.6%.

What about the residual activity [18] of the same molecule?
The residual activity was 100%.

What about the residual activity [19] of the same molecule?
The residual activity was 100%.

What about the residual activity [20] of the same molecule?
The residual activity was 90.9%.

And the residual activity [21]?
Its residual activity is 100%.

And the residual activity [22]?
The residual activity was 100%.

And the residual activity [23]?
The residual activity was 81.2%.

What about the residual activity [24] of the same molecule?
Its residual activity is 48.8%.

What about the residual activity [25] of the same molecule?
The residual activity was 100%.

What about the residual activity [26] of the same molecule?
The residual activity was 91.9%.

And the residual activity [27]?
The residual activity was 90%.

And the residual activity [28]?
Its residual activity is 95.2%.

What about the inhibition [29] of the same molecule?
Its inhibition is 23%.

And the inhibition [30]?
Its inhibition is 20.3%.

And the residual activity [31]?
Its residual activity is 100%.

And the residual activity [32]?
Its residual activity is 100%.

What about the residual activity [33] of the same molecule?
The residual activity was 100%.

What about the residual activity [34] of the same molecule?
The residual activity was 100%.

What about the residual activity [35] of the same molecule?
The residual activity was 100%.

What about the residual activity [36] of the same molecule?
Its residual activity is 54.9%.

And the residual activity [37]?
The residual activity was 68.1%.

And the residual activity [38]?
Its residual activity is 98.6%.

What about the residual activity [39] of the same molecule?
Its residual activity is 64.5%.

And the residual activity [40]?
Its residual activity is 100%.

And the residual activity [41]?
Its residual activity is 97.7%.

And the residual activity [42]?
Its residual activity is 83.4%.

And the residual activity [43]?
Its residual activity is 85.2%.

What about the inhibition [44] of the same molecule?
Its inhibition is 8.06%.

Which residual activity [1] does the source give for `Cc1cc(Nc2nccc(C)n2)cc(-c2cnc([C@@]3(O)CC[C@H](C(=O)O)C(C)(C)C3)s2)c1` [MRL-SYKi] here?
Its residual activity is 100%.

What about the residual activity [2] of the same molecule?
The residual activity was 100%.

What about the inhibition [3] of the same molecule?
Its inhibition is -6.05%.

What about the residual activity [4] of the same molecule?
Its residual activity is 100%.

What about the residual activity [5] of the same molecule?
The residual activity was 100%.

What about the inhibition [6] of the same molecule?
Its inhibition is 2.65%.

And the residual activity [7]?
Its residual activity is 100%.

What about the residual activity [8] of the same molecule?
Its residual activity is 82.1%.

And the residual activity [9]?
The residual activity was 100%.

And the residual activity [10]?
The residual activity was 85.6%.

What about the residual activity [11] of the same molecule?
The residual activity was 56.2%.

What about the residual activity [12] of the same molecule?
The residual activity was 61.6%.

What about the residual activity [13] of the same molecule?
The residual activity was 66.6%.

What about the residual activity [14] of the same molecule?
The residual activity was 94.5%.

And the residual activity [15]?
Its residual activity is 100%.

What about the residual activity [16] of the same molecule?
Its residual activity is 100%.

What about the residual activity [17] of the same molecule?
The residual activity was 100%.

What about the residual activity [18] of the same molecule?
The residual activity was 78.6%.

What about the residual activity [19] of the same molecule?
The residual activity was 36.1%.

What about the residual activity [20] of the same molecule?
Its residual activity is 100%.

And the residual activity [21]?
Its residual activity is 95.8%.

And the residual activity [22]?
Its residual activity is 100%.

And the residual activity [23]?
The residual activity was 88.6%.

What about the residual activity [24] of the same molecule?
The residual activity was 100%.

And the residual activity [25]?
Its residual activity is 100%.

And the residual activity [26]?
The residual activity was 100%.

And the residual activity [27]?
Its residual activity is 100%.

And the residual activity [28]?
The residual activity was 100%.

What about the inhibition [29] of the same molecule?
The inhibition was 8.6%.

And the inhibition [30]?
The inhibition was -2.68%.

And the residual activity [31]?
Its residual activity is 100%.

What about the residual activity [32] of the same molecule?
Its residual activity is 94.2%.

And the residual activity [33]?
Its residual activity is 100%.

And the residual activity [34]?
Its residual activity is 94.5%.

And the residual activity [35]?
The residual activity was 100%.

And the residual activity [36]?
Its residual activity is 100%.

What about the residual activity [37] of the same molecule?
The residual activity was 56.1%.

What about the residual activity [38] of the same molecule?
The residual activity was 81.2%.

What about the residual activity [39] of the same molecule?
Its residual activity is 30.2%.

And the residual activity [40]?
The residual activity was 96.1%.

What about the residual activity [41] of the same molecule?
Its residual activity is 68.3%.

What about the residual activity [42] of the same molecule?
The residual activity was 100%.

And the residual activity [43]?
Its residual activity is 25.2%.

And the inhibition [44]?
The inhibition was 7.61%.
